Columns and labels:
Format in all cases: cell-based
[1] = test system: HepG2 and A549 cell lines; experiment: Cell painting morphological manifold of compound-treated cancer cell lines (deep CNN); details: for clustering in manifold by phenotypic effect (FIG. 16H): previously unseen drugs versus previously seen drugs; for clustering in morphological embedding (FIGS. 18A, 18B): 48 hours incubation, held-out versus training compounds
Experimental: Immortalized cancer cell lines A549 and HepG2 were cultured in T150 flasks and harvested above 60% confluency. The cells were counted on a cell counter (Countess by ThermoFisher) the cell suspension was adjusted to 2000 cells per 50 μL well of a 384 well PDL coated Cell Carrier Ultra (Perkin Elmer) plates. The cells were incubated overnight in a 37 C 5% CO2 incubator and then dosed with our compound collection (at multiple concentrations in log space) in DMSO with a Labcyte Echo from Echo qualified PP2.0 plates. After dosing the cells were incubated for 48 hours in a 37 C 5% CO2 incubator. After the incubation period the plates were stained with Mito-tracker by removing the cell media, washing with PBS on a EL406 plate washer (Biotek), then adding diluted 1 mM stock concentration mitotracker dye in cell culture media to each well with a PRIME liquid handler (HighRes Biosciences). The plates were incubated for 30 minutes and then washed 1× with PBS. Formaldehyde was added to each well of each plate to fix the cells and incubated for 20 minutes and then washed 5× with PBS. 0.1% Triton in PBS was added to the plates and incubated for 15 minutes then washed 2× with PBS and a stain mixture was added to all wells of the plates. The stain mixture included 5 μg/mL Hoechst, 100 μg/mL Concanavalin Alexa Fluor 488 conjugate, 3 uM SYTO 14 green fluorescent nucleic acid stain, 5 uL/mL Phalloidin/Alexa Fluor 568 conjugate, and 1.5 μg/mL Wheat Germ Agglutinin Alexa Fluor 555 conjugate in HBSS with BSA. The plates were incubated for 30 minutes with the stain solution and then washed 4× with PBS. The plates were then imaged in a Perkin Elmer Opera Phenix microscope with 16 images taken per well for all stain wavelengths.
This is a classification task where the goal is to identify which compound was used to perturb the cells in a single well. A single well is split into 16 different fields of views (FOV) which are captured by the microscope. The raw FOV images were preprocessed by correcting the illumination. The FOV images were further cropped into smaller squares so that we can fit into memory during the training of deep convolutional neural network (CNN) models. The Hoechst channel was used to detect the nucleus and then make a square around the detected nucleus.
A deep convolutional neural network was implemented to model the classification task. It was a 150-way classification task. The residual networks (ResNets) was used as the base feature extractor network with a fully connected linear network on top to perform the classification. Standard augmentations were implemented which improved the performance and removed experimental biases. For example, intensity based augmentations like gamma contrast are helpful in removing experimental biases (batch effects). For the mechanism of action identification, some compounds were omitted (˜30 compounds out of 150) during training. During inference, the unseen compounds were embedded closer to the expected mechanism of action cluster along with the seen compounds. FIG. 18A depicts example embeddings with similar drugs clustered more closely together. Here, lovastatin is a held out, unseen drug whereas atorvastatin is a drug used for training. […] In accordance with the methodology of Example 11 (e.g., FIGS. 16A-16D) described above, using embeddings/predictions, the candidate therapy is analyzed to predict its effect (e.g., effect in reverting disease phenotype back to healthy), and further validated in vitro.

knockout treated cells = experiment: Microscopy tile embeddings (deep neural network, UMAP) of WT and KO lines with treatment; details: UMAP projector calculated on untreated WT/KO tile embeddings
Description: FIG. 16C depicts an example embedding showing phenotypic distinction between wild type and knockout cells. FIG. 16C was generated by projecting embeddings extracted from a deep neural network down to two dimensions using UMAP. The neural network model was trained in a supervised manner to discriminate between sick/healthy based on labels for WT and KO lines respectively. Each point in the figure corresponds to a tile of the original microscopy image. The points represented here are only for the WT and KO groups without treatment.
FIG. 16D depicts the use of embeddings for validating known effects of treatments (e.g., rapamycin and everolimus). The following figure uses the same UMAP projector calculated on tile embeddings of WT/KO with no treatment to project the embeddings representing treatment groups into the same space.

[2] = test system: human cortical excitatory neurons; experiment: Neuropaint high-content imaging of neurons exposed to small molecule compounds, ML embeddings; details: 3 concentrations; DAPI, LV-Syn-GFP, Actin, Mito-tracker stains
Experimental: DoxNGN2 iPSCs were plated at two different seeding densities (1k and 6k cells) and further differentiated into human cortical excitatory neurons. Different populations of neurons were exposed to 3 different concentrations of small molecules including rotenone, everolimus, loxapine, phorbol 12-myristate 13-acetate (PMA), staurosporine, rapamycin, BIO, and blebbistatin. Neurons were also treated with controls including phosphate buffered saline and dimethyl sulfoxide (DMSO). Following treatment, phenotypic assay data was captured from the treated neurons by performing high-content imaging (e.g., Neuropaint).

COc1ccc(-c2ccc3c(N4CCOC[C@@H]4C)nc(N4CCOC[C@@H]4C)nc3n2)cc1CO [AZD 8055]
clustering in manifold by phenotypic effect (FIG. 16H) [1]: clustered proximity to previously seen drugs

COc1cc(C(=O)O)ccc1NC(=O)[C@@H]1N[C@@H](CC(C)(C)C)[C@](C#N)(c2ccc(Cl)cc2F)[C@H]1c1cccc(Cl)c1F [RG7388]
clustering in manifold by phenotypic effect (FIG. 16H) [1]: clustered proximity to previously seen drugs

CC(C)c1c(C(=O)Nc2ccccc2)c(-c2ccccc2)c(-c2ccc(F)cc2)n1CC[C@@H](O)C[C@@H](O)CC(=O)O [atorvastatin]
clustering in morphological embedding (FIGS. 18A, 18B) [1]: clustered close together

CO[C@H]1C[C@@H]2CC[C@@H](C)[C@@](O)(O2)C(=O)C(=O)N2CCCC[C@H]2C(=O)O[C@H]([C@H](C)C[C@@H]2CC[C@@H](OCCO)[C@H](OC)C2)CC(=O)[C@H](C)/C=C(\C)[C@@H](O)[C@@H](OC)C(=O)[C@H](C)C[C@H](C)/C=C/C=C/C=C/1C [everolimus]
shift of knockout cells in image embedding (FIG. 16D) (knockout treated cells): induces knockout treated cells to revert back towards a healthy phenotype

CC[C@H](C)C(=O)O[C@H]1C[C@@H](C)C=C2C=C[C@H](C)[C@H](CC[C@@H]3C[C@@H](O)CC(=O)O3)[C@H]21 [lovastatin]
clustering in morphological embedding (FIGS. 18A, 18B) [1]: clustered close together
clustering in manifold by phenotypic effect (FIG. 16H) [1]: clustered proximity to previously seen drugs

CN[C@@H]1C[C@H]2O[C@@](C)([C@@H]1OC)n1c3ccccc3c3c4c(c5c6ccccc6n2c5c31)C(=O)NC4 [staurosporine]
location of treated neurons in embeddings (FIG. 10C) [2]: located separate from neurons treated with other small compounds
